One may read the Kd as the equilibrium constant for the complex coming apart.

Where no end group is shown, it is not given here.

The target of assay [1] is T1, Transferrin (Homo sapiens, UniProt P02787). The assay is described as follows: Affinity characterization of TRF26 lead and selected mutants. In kind it is binding. The procedure:
Two TRF26 point-mutants (P6Y, H12F) were selected for further affinity characterization. The P6Y and H12F point-mutants have dissociation constants of 8.6±1.6 μM and 9.8±1.6 μM respectively. […] A TRF26 double mutant sequence containing the P6Y+H12F mutations was synthesized and characterized.

Assay [2] addresses T1, Transferrin. The assay is described as follows: SPR solution phase KD of candidate affinity elements, transferrin immobilized (Biacore T100). In kind it is binding. The note with it: steady-state response, 25° C., PBST. The protocol:
Transferrin 25 μg/ml in immobilization buffer selected for correct pH was then applied 302 at a flow rate of 5 to 10 μl/min for a contact time of about 5 to 10 minutes, allowing the amine functionality on the transferrin 308 to displace the activated NHS ester and bond to the surface via an amide bond. Finally, ethylene diamine (1M ethylene diamine-HCl at pH 8.5) was applied 304 at a flow rate of 5 to 10 μl/min for a contact time of about 6 to 7 minutes to deactivate any remaining reactive groups on the dextran chip surface. Flow rates and contact times are adjusted as necessary to provide the surface concentration of target desired for the intended application, and may vary by target. In general, for evaluating whether binding occurs, it is preferable to immobilize a relatively large quantity of target, and higher flow rates and/or longer contact times may be used. For determining kinetics, it is preferable to limit the amount of target immobilized so as to minimize rebinding and avidity effects, and lower flow rates and/or contact times may be used.
Candidate affinity elements for the transferrin synbody TRF19, TRF21, TRF23, TRF24, TRF25, and TRF26 were individually evaluated for solution phase KD with respect to transferrin by SPR analysis. Because the off rates for these polypeptides were very high, KD values were estimated by measuring steady-state response for at least five concentrations in a two-fold dilution series, each concentration tested in duplicate. For each experiment, response data were processed using a reference surface to correct for bulk refractive index changes and any non-specific binding. Data were also double referenced using responses from blank running buffer injections. Each experiment was conducted at 25° C. using PBST (0.01M Phosphate Buffered Saline, 0.138M NaCl, 0.0027M KCl, 0.05% surfactant Tween20, pH 7.4) as the running buffer on a Biacore T100 instrument. Analytes were injected for 60 s at a flow rate of 30 μl/min. The antigen surfaces were regenerated with 30 s consecutive pulses of NaOH/NaCl (50 mM NaOH in 1M NaCl) and Glycine (10 mM glycine-HCl, pH 2.5).
(In general: SPR reads the build-up and loss of mass on a sensor chip optically.)

Assay [3] has as its target T1, Transferrin. The assay is described as follows: Peptide microarray ranking, labeled transferrin with E. coli lysate competitor. In kind it is binding. The protocol: Several polypeptides were identified as candidate affinity elements for synbodies against an arbitrarily chosen protein target, transferrin, by incubating transferrin on the polypeptide microarray in the presence of E. coli lysate competitor. Transferrin was randomly direct-labeled at free amines with Alexa™ 555, and E. coli lysate was randomly direct-labeled at free amines with Alexa™ 647. Three replicate arrays were passivized by applying a mixture of BSA and mercaptohexanol for one hour. The arrays were blocked with unlabelled E. coli lysate for one hour, then washed three times with TBST (0.05% Tween) followed by three times with water. A mixture of labeled transferrin and labeled E. coli lysate was applied to the three replicate arrays and incubated for three hours. The arrays were again washed three times with TBST (0.05% Tween) followed by three times with water, and scanned at 555 nm and 647 nm using an array reader. Polypeptides were ranked as candidates for inclusion as affinity elements of synbodies by computing a score for each polypeptide equal to the mean raw 555 nm intensity over the six replicate features, squared, divided by the mean raw 647 nm intensity over the six replicate features. This simple scoring function tends to favor candidate polypeptides that bind at least moderate affinity, since otherwise the 555 nm intensity would be relatively lower, and that are relatively specific, since otherwise the 647 nm intensity would be relatively higher and contribute to a relatively lower score. Many variations of this ranking and identification process can be used, such as, by way of non-limiting examples, two-color comparisons against other competitors; comparisons with data taken in separate experiments with respect to other targets; and use of scoring functions taking into account other factors, employing other functional relationships, and/or involving statistical analysis and/or preprocessing of data and/or correcting for background fluorescence and/or other factors affecting the accuracy of the measured intensities. Ten polypeptides (Table 1) were identified for further evaluation for use as affinity elements in synbodies by choosing the polypeptides having the highest score (one polypeptide was rejected as difficult to synthesize, so the polypeptides chosen were ten of those having the eleven highest scores).
After preparation of the array in accordance with the methods previously described in Example 2, the array was washed one time for five minutes in 7.33% acetonitrile, 37% isopropanol, 0.55% trifluoroacetic acid, and 55% water. Alexa 555 labeled target protein transferrin was applied, together with Alexa 647 labeled E. coli lysate competitor, to the prewashed array and to an identical array without organic prewash. […] 5,010 on the array without organic prewash, but ranked no. 9601 on the prewashed array. Conversely, peptide TRF-21, shown by SPR analysis to be a relatively strong binder of transferrin, rose in rank from 84 on the non-prewashed array to rank no. 5 on the prewashed array.

The target in assay [4] is T1, Transferrin. Nature of the assay: SPR analysis of peptide pairs for binding to distinct sites on target. The note with it: peptides applied in 1:1 mixtures in pairs. The text has this:
The transferrin target was immobilized on a Biacore T100 SPR chip, and candidate polypeptides were applied in 1:1 mixtures in pairs and response data obtained, in accordance with the methods described in Example 4 above. As illustrated in FIGS. 12A-D, upon flowing candidate polypeptides over the immobilized target, ideally one polypeptide applied alone would bind to a first binding site on the target and produce a first characteristic SPR response level (FIG. 12A), the other polypeptide would bind to a second, distinct binding site on the target, producing a second characteristic response level (FIG. 12B), and a mixture of the two polypeptides together (at the same concentrations as before) would produce a response level approximating the sum of the response levels produced by each polypeptide alone, as the polypeptides bind to distinct binding sites (FIG. 12C).

The target of assay [5] is T2, TNF-α (Homo sapiens, UniProt P01375). Nature of the assay: SPR of TNF1 lead and mutant peptides on captured TNF-α (Biacore A100). In kind it is binding. An excerpt:
Scanning Mutagenesis of the TNF1 Lead Peptide. After lead identification, the next step in the AMPLI algorithm is characterization of point mutations in the lead heteropolymer. Using short peptides makes it chemically feasible to synthesize a significant fraction of the point-mutant space, which can then be screened for enhanced point mutations. For example, all possible point mutations in the 17 randomized positions using all 20 natural amino acids could be synthesized and screened within a single 384-well plate (323 total point-mutants). However, libraries containing all 20 natural amino acids are not required for affinity optimization of protein-protein interactions. A library of TNF1 point-mutants containing all substitutions of the amino acid set {Y, A, D, S, K, N, V, W} in each of the 17 randomized positions (132 unique point-mutants) was synthesized. Tyrosine (Y), alanine (A), aspartic acid (D) and serine (S) were selected because of their effectiveness in producing high affinity interactions when substituted into the complementary-determining regions (CDRs) of synthetic antibodies (Felouse, Proceedings of the National Academy of Sciences 101(34):12467, 2004), lysine (K) was selected to balance the charge in the substitution set, asparagine (N), valine (V) and tryptophan (W) were selected to span the hydropathicity range (Kyte J & Doolittle R F, Journal of Molecular Biology 157(1):105-132, 1982). […] This concentration was used to increase the high-end dynamic range for quantifying enhancing point mutations at the expense of low-end dynamic range for quantifying detrimental point mutations.
Point-mutant libraries were prepared in 96-well stock plates From the stock plate, peptides were diluted to 50 μM concentration in Biacore HBS-EP buffer (GE Healthcare, Piscataway, N.J.) containing 1 mg/ml carboxymethyl-dextran (Sigma-Aldrich, St. Louis, Mo.) to reduce non-specific binding to the CM-5 SPR chip surface. TNF-α was captured on a CM-5 chip surface at different capture levels on spots 1, 2, 4, and 5 across all four flow cells corresponding to a 40-200 RU range of predicted Rmax binding responses. Spot 3 contained only immobilized neutravidin and served as a reference spot.
Using the prepared 96-well plates and Biacore A100 SPR instrument, four peptides were flowed separately, in parallel, through the four flow cells over all 4 TNF-α spots and the neutravidin reference spot, with a 60 second association phase and 300 second dissociation phase. SPR sensorgrams were recorded for each peptide response with all 4 TNF-α spots and the neutravidin reference spot across the four flow cells on the SPR chip. Surface regeneration was performed after every 12 injections in each flow cell with Biacore Glycine 2.5 regeneration solution (GE Healthcare, Piscataway, N.J.). Point-mutant reference subtracted, peptide molecular weight adjusted, responses at the late binding region of the sensorgram (a few seconds before dissociation) were compared to the response of the TNF1 lead
Purified point-mutant affinities were measured on the Biacore A100 using SPR equilibrium binding response across a series of peptide concentrations on an SPR chip with TNF-α captured as described above.
These sequences were synthesized and purified using standard solid-phase FMOC synthesis and HPLC purification.

Assay [6] addresses T2, TNF-α. The assay is described as follows: Fluorescence anisotropy validation of TNF1-opt affinity. In kind it is binding. The procedure:
Affinity Characterization of Double, Triple and Quadruple Mutants. […] In all cases, an improvement in TNF-α affinity was observed when an additional enhancing substitution was added to the sequence. Double mutants were better than the corresponding single mutants, triple mutants were better than the corresponding single/double mutants and the quadruple mutant was better than the corresponding single/double/triple mutants (FIG. 71, Table 2).
A general note: In fluorescence polarisation assays a small probe gives low polarisation when free and higher when bound to something large.

Assay [7] concerns the target T2, TNF-α. The assay is described as follows: SPR of TNF1 lead and mutant peptides on captured TNF-α (Biacore A100). In kind it is binding. The note with it: several sensorgrams; read-out: Kd determined from kinetic fits.

T1 sequence (P02787 20-698): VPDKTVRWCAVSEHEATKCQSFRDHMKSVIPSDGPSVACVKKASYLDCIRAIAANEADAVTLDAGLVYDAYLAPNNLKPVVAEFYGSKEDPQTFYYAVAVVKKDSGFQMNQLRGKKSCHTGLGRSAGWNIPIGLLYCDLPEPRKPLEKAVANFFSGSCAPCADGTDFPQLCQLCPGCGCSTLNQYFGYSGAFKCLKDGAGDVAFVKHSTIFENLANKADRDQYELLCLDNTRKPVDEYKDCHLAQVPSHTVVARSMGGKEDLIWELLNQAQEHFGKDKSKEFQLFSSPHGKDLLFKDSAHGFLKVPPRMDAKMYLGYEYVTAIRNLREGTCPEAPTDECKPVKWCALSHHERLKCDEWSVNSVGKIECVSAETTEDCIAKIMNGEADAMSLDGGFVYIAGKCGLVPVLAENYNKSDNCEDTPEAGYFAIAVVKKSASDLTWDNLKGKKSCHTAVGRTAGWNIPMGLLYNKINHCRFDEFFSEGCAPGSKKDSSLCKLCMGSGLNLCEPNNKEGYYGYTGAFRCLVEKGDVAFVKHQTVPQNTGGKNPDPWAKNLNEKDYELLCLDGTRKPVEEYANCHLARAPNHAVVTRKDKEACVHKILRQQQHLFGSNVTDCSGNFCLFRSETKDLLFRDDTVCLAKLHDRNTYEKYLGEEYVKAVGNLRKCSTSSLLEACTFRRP
T2 sequence (P01375 77-233 limits assumed, species assumed): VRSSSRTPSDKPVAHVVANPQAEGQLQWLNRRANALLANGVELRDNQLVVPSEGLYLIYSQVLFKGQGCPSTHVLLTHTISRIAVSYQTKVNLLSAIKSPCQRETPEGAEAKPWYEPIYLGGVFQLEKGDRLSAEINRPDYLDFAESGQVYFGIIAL

Regarding AHKVVPQRQIRHAYNRYGSC [TRF26], on Transferrin [1], the “Binding ΔG (observed)” value was -5.56 ± 0.10 kcal/mol. Also, the Kd at Transferrin [2] was about 100000 nM. Further, the Rank -- prewash at Transferrin [3] (array with organic prewash) worked out at 436. Also, the Rank - non-prewash on Transferrin [3] (array without organic prewash) turned out to be 596. On Transferrin [4], the “binding to distinct sites on transferrin” value is reported as “bind distinct sites on transferrin”.
FERSYLKMPWKFLQSRQGSC [TNF1-opt]: on TNF-α [5], the “Kd Fold-Change Relative to Lead” value is 100 ± 22. For the same sequence, the Kd at TNF-α [5] (SPR equilibrium binding response, read-out: Kd (observed)) was 1600 ± 300 nM; on TNF-α [5] (energetic additivity of component mutations, read-out: Predicted Kd), 700 to 1900 nM; at TNF-α [6] it was 1100 ± 200 nM; on TNF-α [7] it was 700 ± 20 nM. Besides, on TNF-α [5] (calculated from dissociation constants), the “Binding ΔG (observed)” value is -7.97 ± -0.11 kcal/mol.

These data come from US20120065123A1, “Synthetic Antibodies” (priority 2009, published 2012).
